Source: patent publication US9119886B2, “Immunoconjugates for the treatment of tumours” (MolMed SpA, priority 2002, dated 2015)

B1: NGR-TNF: TNF fused with the C-terminus of CNGRCG; human or murine form not specified at the place (Example 15 used NGR-mTNF) (protein)
chain: CNGRCGMSTESMIRDVELAEEALPQKMGGFQNSRRCLCLSLFSFLLVAGATTLFCLLNFGVIGPQRDEKFPNGLPLISSMAQTLTLRSSSQNSSDKPVAHVVANHQVEEQLEWLSQRANALLANGMDLKDNQLVVPADGLYLVYSQVLFKGQGCPDYVLLTHTVSRFAISYQEKVNLLSAVKSPCPKDTPEGAELKPWYEPIYLGGVFQLEKGDQLSAEVNLPKYLDFAESGQVYFGVIAL

Columns and labels:
B16F1 melanoma = experiment: anti-tumor activity (tumor growth) in B16F1 melanoma-bearing mice; assay type: in vivo, C57BL/6 mice
Protocol: C57BL/6 mice (Charles River Laboratories, Calco, Italy) weighing 16-18 g were challenged with subcutaneous injection in the left flank of 5×10^4 RMA-T or B16F1 living cells; 4-12 days later, the mice were treated with TNF or NGR-TNF solutions (100 μl) followed 2 hours later by administration of melphalan or doxorubicin solution (100 μl). Unless specified, all drugs were administered intraperitoneally (i.p.). All drugs were diluted with 0.9% sodium chloride, containing 100 μg/ml endotoxin-free human serum albumin (Farma-Biagini, Lucca, Italy), except for doxorubicin, which was diluted with 0.9% sodium chloride alone. Tumor growth was monitored daily by measuring the tumors with calipers as previously described (20). Animals were sacrificed before the tumors reached 1.0-1.5 cm in diameter. Tumor sizes are shown as mean±SE (5 animals/group).
We then investigated whether targeted delivery of low doses of NGR-mTNF to tumor vessles could enhance the anti-tumor activity of chemotherapeutic drugs.

B16F1 cells = experiment: 48 hour in vitro cytotoxicity assay on cultured B16F1 cells; assay type: cell-based, mouse
From the text: To assess whether the synergism depends directly on cytotoxicity against tumor cells we measured the effect of each compound, alone or in combination, on cultured B16F1 cells.

RMA-T lymphoma = experiment: anti-tumor activity (tumor growth) in RMA-T lymphoma-bearing mice; assay type: in vivo, C57BL/6 mice; conditions: RMA-T tumors, treatment at day 10, picogram doses

| Molecule | effect on tumor growth, single agent (B16F1 melanoma; melphalan 90 μg, mTNF or NGR-mTNF 0.1 ng i.p.) | killing of cultured cells (B16F1 cells) | dose sufficient to enhance the anti-tumor activity of melphalan and doxorubicin (B16F1 melanoma; systemic administration to mice) | enhancement of therapeutic effect of cisplatinum (RMA-T lymphoma) |
| --- | --- | --- | --- | --- |
| N[C@@H](Cc1ccc(N(CCCl)CCCl)cc1)C(=O)O [Melphalan] | unable to effect the growth of tumors | Neither melphalan or NGR-mTNF, alone or in combination, killed these cells |  |  |
| B1 |  |  | 0.003 to 0.005 µg/kg | sufficient to enhance the therapeutic effect of cisplatinum |
